Legend:
[1] = system: Aptamer 21; assay: Capture of Aptamer 21 from a defined mixture of RNAs; format: binding
Description: A sample of folded RNA was prepared containing 1 μM each of Myc HP PA, Aptamer 21, FMN, MYC_3WJ-HP_N3G, and PreQ1 RNAs in folding buffer (20 mM TrisHCl pH 8, 100 mM KCl, 3 mM MgCl2). A 95 μL sample of this solution was added to a 5 μL aliquot of 0.2 mM ARK-670 (probe) or ARK-139 (control) in DMSO. The reaction was incubated for 30 min at 37° C., irradiated with long wave UV light (˜365 nm) for 30 min in a UV crosslinker (Fisher Scientific), and then cooled on ice. The excess probe and buffer was then removed by passing the sample through an Illustra MicroSpin G-25 spin column (GE Healthcare) according to the manufacturer's protocol.
For each treatment, a 75 μL aliquot of the crosslinked RNA was mixed with 0.75 μL of 10% Tween-20 and 0.45 μL of 0.5 M EDTA pH 8 solution. A 50 μL aliquot of MyOne Streptavidin C1 Dynabead slurry (Thermo) was captured on a magnet, washed twice with 50 μL of 1× bind/wash buffer (20 mM TrisHCl pH 7, 100 mM KCl, 0.1% Tween-20), and then resuspended in 50 μL of the crosslinked RNA sample. The bead suspension was rotated at room temperature for 60 min and then washed twice with 100 μL of 1× bind/wash solution. […]
To remove excess primer, the sample was mixed with 4.5 μL of ExoSAP-IT, incubated at 37° C. for 15 min, and then quenched with 1 μL of 0.5 M EDTA pH 8. […] The concentration was determined by absorbance at 260 nm. […]

[2] = system: Aptamer 21; assay: Biotin-photoaffinity probe cross-linking and streptavidin bead pull-down gel assay; format: binding; conditions: Aptamer 21 compared with Aptamer 21-E

Compound: COC(=O)C1=C(COCc2cn(CCOCCOCCNC(=O)[C@H](CCCCNC(=O)c3ccc(N=[N+]=[N-])cc3)NC(=O)CCCC[C@@H]3SC[C@@H]4NC(=O)N[C@@H]43)nn2)NC(c2ccncc2)=NC1c1ccc(F)cc1Cl (stereo partly drawn) [ARK-670]
- RT pausing signal from probe adducts ([1]; Aptamer 21, Aptamer 21-E, or mixture of Aptamer 21 and four other RNAs): specific for Aptamer 21
- enrichment of RNAs after cross-linking, avidin bead enrichment and sequencing ([1]; mixture of Aptamer 21 and four other RNAs): only Aptamer 21 was enriched
- pull-down of RNA on streptavidin beads after cross-linking [2]: Only the Aptamer 21 RNA showed significant pull-down
